Experiment: Cytotoxicity against human erythrocytes assessed as hemolytic activity after 60 mins
Type: cell-based, Erythrocyte
Details: read-out: HD50

| SMILES | HC50 at 1 h |
| --- | --- |
| C[C@@H]1CC[C@@]2(OC1)O[C@H]1C[C@H]3[C@@H]4CC=C5C[C@@H](O[C@@H]6O[C@H](CO)[C@@H](O[C@H]7O[C@H](C)[C@@H](OCCNS(=O)(=O)c8cccc9c(N(C)C)cccc89)[C@H](O)[C@@H]7O)[C@H](O)[C@H]6O[C@H]6O[C@H](C)[C@@H](O)[C@H](O)[C@@H]6O)CC[C@]5(C)[C@H]4CC[C@]3(C)[C@H]1[C@@H]2C | 1.3 µM |
| C[C@@H]1CC[C@@]2(OC1)O[C@H]1C[C@H]3[C@@H]4CC=C5C[C@@H](O[C@@H]6O[C@H](CO)[C@@H](O[C@H]7O[C@H](C)[C@@H](OCCNC(=O)COc8ccc(Cl)cc8)[C@H](O)[C@@H]7O)[C@H](O)[C@H]6O[C@H]6O[C@H](C)[C@@H](O)[C@H](O)[C@@H]6O)CC[C@]5(C)[C@H]4CC[C@]3(C)[C@H]1[C@@H]2C | 2.9 µM |
| C[C@@H]1CC[C@@]2(OC1)O[C@H]1C[C@H]3[C@@H]4CC=C5C[C@@H](O[C@@H]6O[C@H](CO)[C@@H](O[C@H]7O[C@H](C)[C@@H](OCCNC(=O)CCCCl)[C@H](O)[C@@H]7O)[C@H](O)[C@H]6O[C@H]6O[C@H](C)[C@@H](O)[C@H](O)[C@@H]6O)CC[C@]5(C)[C@H]4CC[C@]3(C)[C@H]1[C@@H]2C | 3.8 µM |
| C[C@@H]1CC[C@@]2(OC1)O[C@H]1C[C@H]3[C@@H]4CC=C5C[C@@H](O[C@@H]6O[C@H](CO)[C@@H](O[C@H]7O[C@H](C)[C@@H](OCCNC(=O)c8ccccc8)[C@H](O)[C@@H]7O)[C@H](O)[C@H]6O[C@H]6O[C@H](C)[C@@H](O)[C@H](O)[C@@H]6O)CC[C@]5(C)[C@H]4CC[C@]3(C)[C@H]1[C@@H]2C | 49.3 µM |
| C[C@@H]1CC[C@@]2(OC1)O[C@H]1C[C@H]3[C@@H]4CC=C5C[C@@H](O[C@@H]6O[C@H](CO)[C@@H](O[C@H]7O[C@H](C)[C@@H](OCCNC(=O)OCC8c9ccccc9-c9ccccc98)[C@H](O)[C@@H]7O)[C@H](O)[C@H]6O[C@H]6O[C@H](C)[C@@H](O)[C@H](O)[C@@H]6O)CC[C@]5(C)[C@H]4CC[C@]3(C)[C@H]1[C@@H]2C | 3 µM |
| C[C@@H]1CC[C@@]2(OC1)O[C@H]1C[C@H]3[C@@H]4CC=C5C[C@@H](O[C@@H]6O[C@H](CNC(=O)CCCCl)[C@@H](O[C@H]7O[C@H](C)[C@@H](O)[C@H](O)[C@@H]7O)[C@H](O)[C@H]6O[C@H]6O[C@H](C)[C@@H](O)[C@H](O)[C@@H]6O)CC[C@]5(C)[C@H]4CC[C@]3(C)[C@H]1[C@@H]2C | 20.9 µM |
| C[C@@H]1CC[C@@]2(OC1)O[C@H]1C[C@H]3[C@@H]4CC=C5C[C@@H](O[C@@H]6O[C@H](CO)[C@@H](O[C@H]7O[C@H](C)[C@@H](OCCNC(=O)c8ccc([N+](=O)[O-])cc8)[C@H](O)[C@@H]7O)[C@H](O)[C@H]6O[C@H]6O[C@H](C)[C@@H](O)[C@H](O)[C@@H]6O)CC[C@]5(C)[C@H]4CC[C@]3(C)[C@H]1[C@@H]2C | 4.9 µM |
| C[C@@H]1CC[C@@]2(OC1)O[C@H]1C[C@H]3[C@@H]4CC[C@H]5C[C@@H](O[C@@H]6O[C@H](CO)[C@@H](O[C@H]7O[C@H](C)[C@@H](O)[C@H](O)[C@@H]7O)[C@H](O)[C@H]6O[C@H]6O[C@H](C)[C@@H](O)[C@H](O)[C@@H]6O)CC[C@]5(C)[C@H]4CC[C@]3(C)[C@H]1[C@@H]2C | 3 µM |
| CCCCCCCCCCCCCCCCCC(=O)NCCO[C@H]1[C@H](O)[C@H](O)[C@@H](O[C@H]2[C@H](O)[C@@H](O[C@H]3O[C@H](C)[C@@H](O)[C@H](O)[C@@H]3O)[C@H](O[C@H]3CC[C@@]4(C)C(=CC[C@H]5[C@@H]6C[C@@H]7O[C@]8(CC[C@@H](C)CO8)[C@@H](C)[C@@H]7[C@@]6(C)CC[C@@H]54)C3)O[C@@H]2CO)O[C@@H]1C | > 50 µg/mL |
| CC(=O)NCCO[C@H]1[C@H](O)[C@H](O)[C@@H](O[C@H]2[C@H](O)[C@@H](O[C@H]3O[C@H](C)[C@@H](O)[C@H](O)[C@@H]3O)[C@H](O[C@H]3CC[C@@]4(C)C(=CC[C@H]5[C@@H]6C[C@@H]7O[C@]8(CC[C@@H](C)CO8)[C@@H](C)[C@@H]7[C@@]6(C)CC[C@@H]54)C3)O[C@@H]2CO)O[C@@H]1C | 9.2 µM |
| C[C@@H]1CC[C@@]2(OC1)O[C@H]1C[C@H]3[C@@H]4CC=C5C[C@@H](O[C@@H]6O[C@H](CNC(=O)OCC7c8ccccc8-c8ccccc87)[C@@H](O[C@H]7O[C@H](C)[C@@H](O)[C@H](O)[C@@H]7O)[C@H](O)[C@H]6O[C@H]6O[C@H](C)[C@@H](O)[C@H](O)[C@@H]6O)CC[C@]5(C)[C@H]4CC[C@]3(C)[C@H]1[C@@H]2C | 9 µM |
| CCCCCC(=O)O[C@H]1C[C@@H]2[C@H](CC[C@]3(C)[C@@H]4[C@H](C[C@@H]23)O[C@]2(CC[C@@H](C)CO2)[C@H]4C)[C@@]2(C)C[C@@H](O)[C@H](O[C@@H]3O[C@H](CO)[C@@H](O[C@H]4O[C@H](C)[C@@H](O)[C@H](O)[C@@H]4O)[C@H](O)[C@H]3O[C@H]3O[C@H](C)[C@@H](O)[C@H](O)[C@@H]3O)C[C@H]12 | 7.6 µM |
| CCCCCCCCCCCCCCCCCC(=O)NC[C@H]1O[C@@H](O[C@H]2CC[C@@]3(C)C(=CC[C@H]4[C@@H]5C[C@@H]6O[C@]7(CC[C@@H](C)CO7)[C@@H](C)[C@@H]6[C@@]5(C)CC[C@@H]43)C2)[C@H](O[C@H]2O[C@H](C)[C@@H](O)[C@H](O)[C@@H]2O)[C@@H](O)[C@@H]1O[C@H]1O[C@H](C)[C@@H](O)[C@H](O)[C@@H]1O | > 50 µg/mL |
| C[C@@H]1CC[C@@]2(OC1)O[C@H]1C[C@H]3[C@@H]4CC=C5C[C@@H](O[C@@H]6O[C@H](CO)[C@@H](O[C@@H]7O[C@@H](C)[C@H](O)[C@@H](O)[C@H]7O)[C@H](O)[C@H]6O)CC[C@]5(C)[C@H]4CC[C@]3(C)[C@H]1[C@@H]2C | 27.3 µM |
| C[C@@H]1CC[C@@]2(OC1)O[C@H]1C[C@H]3[C@@H]4CC[C@H]5C[C@@H](O[C@@H]6O[C@H](CO)[C@H](O[C@H]7O[C@H](C)[C@@H](O)[C@H](O)[C@@H]7O)[C@H](O)[C@H]6O[C@@H]6O[C@@H](C)[C@H](O)[C@@H](O)[C@H]6O)[C@H](O)C[C@]5(C)[C@H]4CC[C@]3(C)[C@H]1[C@@H]2C | 9.6 µM |
| CCCCCCCCCCCCCC(=O)NCCO[C@H]1[C@H](O)[C@H](O)[C@@H](O[C@H]2[C@H](O)[C@@H](O[C@H]3O[C@H](C)[C@@H](O)[C@H](O)[C@@H]3O)[C@H](O[C@H]3CC[C@@]4(C)C(=CC[C@H]5[C@@H]6C[C@@H]7O[C@]8(CC[C@@H](C)CO8)[C@@H](C)[C@@H]7[C@@]6(C)CC[C@@H]54)C3)O[C@@H]2CO)O[C@@H]1C | > 50 µg/mL |
| C[C@@H]1CC[C@@]2(OC1)O[C@H]1C[C@H]3[C@@H]4CC=C5C[C@@H](O[C@@H]6O[C@H](CNC(=O)c7ccc([N+](=O)[O-])cc7)[C@@H](O[C@H]7O[C@H](C)[C@@H](O)[C@H](O)[C@@H]7O)[C@H](O)[C@H]6O[C@H]6O[C@H](C)[C@@H](O)[C@H](O)[C@@H]6O)CC[C@]5(C)[C@H]4CC[C@]3(C)[C@H]1[C@@H]2C | 39 µM |
| C[C@@H]1CC[C@@]2(OC1)O[C@H]1C[C@H]3[C@@H]4CC=C5C[C@@H](O[C@@H]6O[C@H](CNS(=O)(=O)c7cccc8c(N(C)C)cccc78)[C@@H](O[C@H]7O[C@H](C)[C@@H](O)[C@H](O)[C@@H]7O)[C@H](O)[C@H]6O[C@H]6O[C@H](C)[C@@H](O)[C@H](O)[C@@H]6O)CC[C@]5(C)[C@H]4CC[C@]3(C)[C@H]1[C@@H]2C | 6.9 µM |
| C[C@@H]1CC[C@@]2(OC1)O[C@H]1C[C@H]3[C@@H]4CC=C5C[C@@H](O[C@@H]6O[C@H](CO[C@@H]7O[C@@H](C)[C@H](O)[C@@H](O)[C@H]7O)[C@@H](O)[C@H](O)[C@H]6O)CC[C@]5(C)[C@H]4CC[C@]3(C)[C@H]1[C@@H]2C | 28.6 µM |
| CCCC(=O)O[C@H]1[C@H](O)[C@H](O)[C@@H](O[C@H]2[C@H](O)[C@@H](O[C@H]3O[C@H](C)[C@@H](O)[C@H](O)[C@@H]3O)[C@H](O[C@H]3CC[C@@]4(C)C(=CC[C@H]5[C@@H]6C[C@@H]7O[C@]8(CC[C@@H](C)CO8)[C@@H](C)[C@@H]7[C@@]6(C)CC[C@@H]54)C3)O[C@@H]2CO)O[C@@H]1C | 2.8 µM |
| C[C@@H]1CC[C@@]2(OC1)O[C@H]1C[C@H]3[C@@H]4CC=C5C[C@@H](O[C@@H]6O[C@H](CN)[C@@H](O[C@H]7O[C@H](C)[C@@H](O)[C@H](O)[C@@H]7O)[C@H](O)[C@H]6O[C@H]6O[C@H](C)[C@@H](O)[C@H](O)[C@@H]6O)CC[C@]5(C)[C@H]4CC[C@]3(C)[C@H]1[C@@H]2C | 24.8 µM |
| CC(=O)OC[C@H]1O[C@H](O[C@H]2[C@H](O)[C@@H](O[C@H]3O[C@H](C)[C@@H](O)[C@H](O)[C@@H]3O)[C@H](O[C@H]3CC[C@@]4(C)C(=CC[C@H]5[C@@H]6C[C@@H]7O[C@]8(CC[C@@H](C)CO8)[C@@H](C)[C@@H]7[C@@]6(C)CC[C@@H]54)C3)O[C@@H]2CO)[C@@H](O)[C@@H]1OC(C)=O | 2.7 µM |
| CCCCCC(=O)O[C@H]1[C@H](O)[C@H](O)[C@@H](O[C@H]2[C@H](O)[C@@H](O[C@H]3O[C@H](C)[C@@H](O)[C@H](O)[C@@H]3O)[C@H](O[C@H]3CC[C@@]4(C)C(=CC[C@H]5[C@@H]6C[C@@H]7O[C@]8(CC[C@@H](C)CO8)[C@@H](C)[C@@H]7[C@@]6(C)CC[C@@H]54)C3)O[C@@H]2CO)O[C@@H]1C | 2.2 µM |
| COc1ccc(C(=O)NC[C@H]2O[C@@H](O[C@H]3CC[C@@]4(C)C(=CC[C@H]5[C@@H]6C[C@@H]7O[C@]8(CC[C@@H](C)CO8)[C@@H](C)[C@@H]7[C@@]6(C)CC[C@@H]54)C3)[C@H](O[C@H]3O[C@H](C)[C@@H](O)[C@H](O)[C@@H]3O)[C@@H](O)[C@@H]2O[C@H]2O[C@H](C)[C@@H](O)[C@H](O)[C@@H]2O)cc1 | 9.5 µM |

— ChEMBL document CHEMBL1147199, “Exploration of the correlation between the structure, hemolytic activity, and cytotoxicity of steroid saponins” (Bioorg Med Chem, 2007)
